Experimental data published in the supplement of paper PMC10307832.

The cell lines below were run with CC1=CC(=CC=C1)NC2=NC(=CS2)C3=CC=NC=C3 + CS(=O)(=O)N1CCN(Cc2cc3nc(-c4cccc5[nH]ncc45)nc(N4CCOCC4)c3s2)CC1 [Pictilisib] (partner 1 µM) (assay: relative viability (nuclei count vs DMSO), 5 days (fraction); higher = more cells survive). Settings: first compound 0.08 µM.
Method in brief: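 A single step with final 0.05% Triton X-100, 1% formaldehyde and 1 ug/ml Hoechst fixed the cells and stained nuclei 5 days after treatment. Lung cancer cell lines in 1536-well plates had been treated by pin tool the day after seeding with one drug alone or a fixed anchor-drug dose plus five library-drug doses (not always all listed) in √10 steps, and nuclei were counted on 4× images. Relative viability is the ratio of nuclei in treated wells to nuclei in vehicle wells, taken as the median of duplicate plates.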
Cell Line NCI-H1703 has a relative viability of 0.229. Work on LK-2 yielded a relative viability of 0.572. Cell Line NCI-H2126 has a relative viability of 0.416. Cell Line H3255 has a relative viability of 0.535. Cell Line COR-L23 has a relative viability of 0.539. COR-L 105 showed a relative viability of 0.322. In the case of IA-LM, the relative viability was 0.24. LOU-NH91 gave a relative viability of 0.482. Work on NCI-H358 yielded a relative viability of 0.289. With NCI-H3122 the relative viability was 0.648. Cell Line HOP-62 has a relative viability of 0.581. Work on HCC-44 yielded a relative viability of 0.423. Cell Line A549 has a relative viability of 0.399. LXF-289 was tested, and the relative viability was 0.714. Cell Line BEN has a relative viability of 0.543. HARA gave a relative viability of 0.343. Cell Line HCC-78 has a relative viability of 0.204. For NCI-H2023, the relative viability was 0.161. In the case of A-427, the relative viability was 0.633. With NCI-H460 the relative viability was 0.311. Work on NCI-H727 yielded a relative viability of 0.26. For NCI-H1755, the relative viability was 0.339. In the case of NCI-H520, the relative viability was 0.281. NCI-H2405 gave a relative viability of 0.315. Work on SW 1573 yielded a relative viability of 0.473. With NCI-H1395 the relative viability was 0.569.

Same assay, conditions: first compound 0.253 µM
NCI-H2087 was tested, and the relative viability was 0.812. In the case of Calu-6, the relative viability was 0.718. In the case of HCC-366, the relative viability was 0.11. For NCI-H1703, the relative viability was 0.243. With NCI-H647 the relative viability was 0.289. LK-2 gave a relative viability of 0.569. Cell Line NCI-H2126 has a relative viability of 0.443. In the case of NCI-H1793, the relative viability was 0.326. Cell Line H3255 has a relative viability of 0.552. For COR-L23, the relative viability was 0.57. With COR-L 105 the relative viability was 0.427. In the case of IA-LM, the relative viability was 0.337. LOU-NH91 was tested, and the relative viability was 0.382. For NCI-H358, the relative viability was 0.345. Work on NCI-H3122 yielded a relative viability of 0.632. With HOP-62 the relative viability was 0.758. Cell Line HCC-44 has a relative viability of 0.429. Cell Line A549 has a relative viability of 0.472. In the case of LXF-289, the relative viability was 0.75. With BEN the relative viability was 0.528. Work on HARA yielded a relative viability of 0.354. In the case of HCC-78, the relative viability was 0.198. NCI-H2023 was tested, and the relative viability was 0.177. Cell Line A-427 has a relative viability of 0.71. NCI-H460 was tested, and the relative viability was 0.257. Work on NCI-H727 yielded a relative viability of 0.287. NCI-H1755 showed a relative viability of 0.401. NCI-H520 showed a relative viability of 0.346. NCI-H2405 showed a relative viability of 0.433. For SW 1573, the relative viability was 0.454. Cell Line NCI-H1395 has a relative viability of 0.602.

Same assay, conditions: first compound 0.8 µM
NCI-H2087 showed a relative viability of 0.851. With Calu-6 the relative viability was 0.659. With HCC-366 the relative viability was 0.132. NCI-H1703 gave a relative viability of 0.238. NCI-H647 showed a relative viability of 0.388. LK-2 gave a relative viability of 0.853. For NCI-H2126, the relative viability was 0.449. With NCI-H1793 the relative viability was 0.357. For H3255, the relative viability was 0.542. In the case of COR-L23, the relative viability was 0.451. Cell Line COR-L 105 has a relative viability of 0.374. For IA-LM, the relative viability was 0.415. LOU-NH91 gave a relative viability of 0.464. For NCI-H358, the relative viability was 0.307. NCI-H3122 was tested, and the relative viability was 0.667. In the case of HOP-62, the relative viability was 1.09. With HCC-44 the relative viability was 0.462. Work on A549 yielded a relative viability of 0.524. LXF-289 was tested, and the relative viability was 0.733. For BEN, the relative viability was 0.585. In the case of HARA, the relative viability was 0.367. In the case of HCC-78, the relative viability was 0.261. In the case of LCLC-97TM1, the relative viability was 0.282. Work on NCI-H2023 yielded a relative viability of 0.215. A-427 showed a relative viability of 0.692. NCI-H460 gave a relative viability of 0.337. NCI-H727 gave a relative viability of 0.313. NCI-H1755 was tested, and the relative viability was 0.338. With NCI-H520 the relative viability was 0.301. NCI-H2405 gave a relative viability of 0.332. For SW 1573, the relative viability was 0.521. Work on NCI-H1395 yielded a relative viability of 0.531.

Same assay, conditions: first compound 2.53 µM
For NCI-H2087, the relative viability was 0.885. For Calu-6, the relative viability was 0.815. HCC-366 gave a relative viability of 0.157. With NCI-H1703 the relative viability was 0.282. In the case of NCI-H647, the relative viability was 0.317. For NCI-H2126, the relative viability was 0.425. Cell Line NCI-H1793 has a relative viability of 0.22. H3255 gave a relative viability of 0.526. Cell Line COR-L23 has a relative viability of 0.714. Work on COR-L 105 yielded a relative viability of 0.413. IA-LM was tested, and the relative viability was 0.267. In the case of LOU-NH91, the relative viability was 0.44. NCI-H358 was tested, and the relative viability was 0.381. In the case of NCI-H3122, the relative viability was 0.727. HOP-62 was tested, and the relative viability was 0.668. HCC-44 gave a relative viability of 0.485. Work on A549 yielded a relative viability of 0.525. For LXF-289, the relative viability was 0.715. Cell Line BEN has a relative viability of 0.446. HARA gave a relative viability of 0.21. With HCC-78 the relative viability was 0.219. Work on LCLC-97TM1 yielded a relative viability of 0.207. Cell Line NCI-H2023 has a relative viability of 0.175. NCI-H460 showed a relative viability of 0.354. For NCI-H727, the relative viability was 0.343. NCI-H1755 was tested, and the relative viability was 0.344. NCI-H520 gave a relative viability of 0.278. NCI-H2405 gave a relative viability of 0.523. SW 1573 showed a relative viability of 0.57. With NCI-H1395 the relative viability was 0.627.

Same assay, conditions: first compound 8 µM
NCI-H2087 was tested, and the relative viability was 0.77. Cell Line Calu-6 has a relative viability of 0.803. HCC-366 showed a relative viability of 0.121. For NCI-H1703, the relative viability was 0.262. For NCI-H647, the relative viability was 0.231. LK-2 gave a relative viability of 0.674. With NCI-H2126 the relative viability was 0.436. NCI-H1793 was tested, and the relative viability was 0.264. In the case of H3255, the relative viability was 0.408. With COR-L23 the relative viability was 0.661. For COR-L 105, the relative viability was 0.393. IA-LM showed a relative viability of 0.427. Cell Line LOU-NH91 has a relative viability of 0.468. In the case of NCI-H358, the relative viability was 0.38. In the case of NCI-H3122, the relative viability was 0.83. Work on HOP-62 yielded a relative viability of 0.903. For HCC-44, the relative viability was 0.486. For A549, the relative viability was 0.418. LXF-289 was tested, and the relative viability was 0.74. BEN was tested, and the relative viability was 0.543. In the case of HARA, the relative viability was 0.374. Cell Line HCC-78 has a relative viability of 0.22. LCLC-97TM1 gave a relative viability of 0.198. In the case of NCI-H2023, the relative viability was 0.18. In the case of A-427, the relative viability was 0.655. NCI-H460 gave a relative viability of 0.336. For NCI-H727, the relative viability was 0.375. NCI-H1755 was tested, and the relative viability was 0.367. With NCI-H520 the relative viability was 0.299. Work on NCI-H2405 yielded a relative viability of 0.342. SW 1573 was tested, and the relative viability was 0.488. With NCI-H1395 the relative viability was 0.697.

These cell lines were tested with CC1=CC(=CC=C1)NC2=NC(=CS2)C3=CC=NC=C3 (assay: relative viability (nuclei count vs DMSO), 5 days (fraction); higher = more cells survive). Settings: 0.08 µM.
Method in brief: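 Five library-drug doses spaced by √10 were pinned onto vehicle-anchored 1536-well plates of lung cancer cell lines that had been kept overnight at 37 °C. Cells went 5 days without medium change, then were fixed, permeabilised and Hoechst-stained together, imaged at 4× and counted by MetaXpress. Viability is the ratio of treated-well to vehicle-well nuclei, taken as a median over plates. Plates required control CV below 25% and at least one doubling.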
With NCI-H2087 the relative viability was 0.951. With Calu-6 the relative viability was 0.894. HCC-366 was tested, and the relative viability was 0.979. With NCI-H1703 the relative viability was 0.831. Work on NCI-H647 yielded a relative viability of 0.816.
